Source: ChEMBL document CHEMBL4270577, “Synthesis, anticancer activity and molecular modeling studies of 1,2,4-triazole derivatives as EGFR inhibitors” (Eur J Med Chem, 2018)

How the values were obtained:
CCRF-CEM = experiment: Growth inhibition of human CCRF-CEM cells at 10 uM incubated for 48 hrs by sulforhodamine B assay relative to control; type: functional; conditions: read-out: GI
K562 = experiment: Growth inhibition of human K562 cells at 10 uM incubated for 48 hrs by sulforhodamine B assay relative to control; type: functional; conditions: K562, 48 h, read-out: GI
MOLT-4 = experiment: Growth inhibition of human MOLT4 cells at 10 uM incubated for 48 hrs by sulforhodamine B assay relative to control; type: functional; conditions: MOLT-4, 48 h, read-out: GI
A549 [1] = experiment: Growth inhibition of human A549/ATCC cells at 10 uM incubated for 48 hrs by sulforhodamine B assay relative to control; type: functional; conditions: A549, 48 h, read-out: GI
EKVX = experiment: Growth inhibition of human EKVX cells at 10 uM incubated for 48 hrs by sulforhodamine B assay relative to control; type: functional; conditions: read-out: GI
HOP-62 [2] = experiment: Growth inhibition of human HOP62 cells at 10 uM incubated for 48 hrs by sulforhodamine B assay relative to control; type: functional; conditions: HOP-62, 48 h, read-out: GI
HOP-92 = experiment: Growth inhibition of human HOP92 cells at 10 uM incubated for 48 hrs by sulforhodamine B assay relative to control; type: functional; conditions: HOP-92, 48 h, read-out: GI
NCI-H226 = experiment: Growth inhibition of human NCI-H226 cells at 10 uM incubated for 48 hrs by sulforhodamine B assay relative to control; type: functional; conditions: NCI-H226, 48 h, read-out: GI
NCI-H522 = experiment: Growth inhibition of human NCI-H522 cells at 10 uM incubated for 48 hrs by sulforhodamine B assay relative to control; type: functional; conditions: NCI-H522, 48 h, read-out: GI
COLO 205 = experiment: Growth inhibition of human COLO205 cells at 10 uM incubated for 48 hrs by sulforhodamine B assay relative to control; type: functional; conditions: COLO 205, 48 h, read-out: GI
HCT-15 = experiment: Growth inhibition of human HCT15 cells at 10 uM incubated for 48 hrs by sulforhodamine B assay relative to control; type: functional; conditions: HCT-15, 48 h, read-out: GI
HT-29 [3] = experiment: Growth inhibition of human HT-29 cells at 10 uM incubated for 48 hrs by sulforhodamine B assay relative to control; type: functional; conditions: HT-29, 48 h, read-out: GI
SW-620 = experiment: Growth inhibition of human SW620 cells at 10 uM incubated for 48 hrs by sulforhodamine B assay relative to control; type: functional; conditions: SW-620, 48 h, read-out: GI
SF-539 = experiment: Growth inhibition of human SF539 cells at 10 uM incubated for 48 hrs by sulforhodamine B assay relative to control; type: functional; conditions: SF-539, 48 h, read-out: GI
LOX IMVI = experiment: Growth inhibition of human LOXIMVI cells at 10 uM incubated for 48 hrs by sulforhodamine B assay relative to control; type: functional; conditions: read-out: GI
Malme-3M = experiment: Growth inhibition of human MALME-3M cells at 10 uM incubated for 48 hrs by sulforhodamine B assay relative to control; type: functional; conditions: read-out: GI
MDA-MB-435 = experiment: Growth inhibition of human MDA-MB-435 cells at 10 uM incubated for 48 hrs by sulforhodamine B assay relative to control; type: functional; conditions: MDA-MB-435, 48 h, read-out: GI
SK-MEL-5 = experiment: Growth inhibition of human SK-MEL-5 cells at 10 uM incubated for 48 hrs by sulforhodamine B assay relative to control; type: functional; conditions: SK-MEL-5, 48 h, read-out: GI
A498 = experiment: Growth inhibition of human A498 cells at 10 uM incubated for 48 hrs by sulforhodamine B assay relative to control; type: functional; conditions: A498, 48 h, read-out: GI
RXF 393 = experiment: Growth inhibition of human RXF393 cells at 10 uM incubated for 48 hrs by sulforhodamine B assay relative to control; type: functional; conditions: RXF 393, 48 h, read-out: GI
TK-10 [4] = experiment: Growth inhibition of human TK10 cells at 10 uM incubated for 48 hrs by sulforhodamine B assay relative to control; type: functional; conditions: TK-10, 48 h, read-out: GI
SR = experiment: Cytotoxicity against human SR cells incubated for 48 hrs by sulforhodamine B assay; type: functional
HOP-62 [5] = experiment: Cytotoxicity against human HOP62 cells incubated for 48 hrs by sulforhodamine B assay; type: functional; conditions: HOP-62, 48 h
TK-10 [6] = experiment: Cytotoxicity against human TK10 cells incubated for 48 hrs by sulforhodamine B assay; type: functional; conditions: TK-10, 48 h
T47D = experiment: Cytotoxicity against human T47D cells incubated for 48 hrs by sulforhodamine B assay; type: functional
HT-29 [7] = experiment: Antiproliferative activity against human HT-29 cells after 48 hrs by propidium iodide staining-based fluorometric analysis; type: functional, cell-based; conditions: HT-29, 48 h
NCI-H460 = experiment: Antiproliferative activity against human H460 cells after 48 hrs by propidium iodide staining-based fluorometric analysis; type: functional, cell-based; conditions: NCI-H460, 48 h
[8] = molecular target: Epidermal growth factor receptor (Homo sapiens, UniProt P00533); experiment: Inhibition of His6-tagged recombinant EGFR cytoplasmic domain (645 to 1186 residues) (unknown origin) expressed in baculovirus infected Sf9 insect cells preincubated for 10 mins followed by ATP-MgCl2 addition and measured after 1 hr by DELFIA/time-resolved fluorometric analysis
Tubulin (Homo sapiens) = Tubulin (Homo sapiens) (UniProt P68371+Q9H4B7+P0DPH7+P68366+Q13509+Q71U36+P04350+Q3ZCM7+P07437+P68363+Q9BQE3+Q6PEY2+Q13885+Q9BVA1+Q9BUF5); experiment: Inhibition of tubulin (unknown origin) polymerization assessed as polymerized tubulin level at 5 to 25 uM by fluorescence assay; type: protein-complex assay
A549 [9] = experiment: Induction of apoptosis in human A549 cells assessed as late apoptotic cells at 1.4 uM after 24 hrs by Annexin V/propidium iodide staining based flow cytometric analysis (reference value: 0.08%); type: functional
A549 [10] = experiment: Induction of apoptosis in human A549 cells assessed as necrotic cells at 1.4 uM after 24 hrs by Annexin V/propidium iodide staining based flow cytometric analysis (reference value: 0.09%); type: functional
A549 [11] = experiment: Cell cycle arrest in human A549 cells assessed as accumulation at G1 phase at 1.4 uM after 24 hrs by propidium iodide staining based flow cytometry (reference value: 67.52%); type: functional
A549 [12] = experiment: Cell cycle arrest in human A549 cells assessed as accumulation at S phase at 1.4 uM after 24 hrs by propidium iodide staining based flow cytometry (reference value: 27.9%); type: functional
[13] = read-out: LC50 (the source's name)

Sequence of Epidermal growth factor receptor (P00533 whole entry, the tested form may be a part): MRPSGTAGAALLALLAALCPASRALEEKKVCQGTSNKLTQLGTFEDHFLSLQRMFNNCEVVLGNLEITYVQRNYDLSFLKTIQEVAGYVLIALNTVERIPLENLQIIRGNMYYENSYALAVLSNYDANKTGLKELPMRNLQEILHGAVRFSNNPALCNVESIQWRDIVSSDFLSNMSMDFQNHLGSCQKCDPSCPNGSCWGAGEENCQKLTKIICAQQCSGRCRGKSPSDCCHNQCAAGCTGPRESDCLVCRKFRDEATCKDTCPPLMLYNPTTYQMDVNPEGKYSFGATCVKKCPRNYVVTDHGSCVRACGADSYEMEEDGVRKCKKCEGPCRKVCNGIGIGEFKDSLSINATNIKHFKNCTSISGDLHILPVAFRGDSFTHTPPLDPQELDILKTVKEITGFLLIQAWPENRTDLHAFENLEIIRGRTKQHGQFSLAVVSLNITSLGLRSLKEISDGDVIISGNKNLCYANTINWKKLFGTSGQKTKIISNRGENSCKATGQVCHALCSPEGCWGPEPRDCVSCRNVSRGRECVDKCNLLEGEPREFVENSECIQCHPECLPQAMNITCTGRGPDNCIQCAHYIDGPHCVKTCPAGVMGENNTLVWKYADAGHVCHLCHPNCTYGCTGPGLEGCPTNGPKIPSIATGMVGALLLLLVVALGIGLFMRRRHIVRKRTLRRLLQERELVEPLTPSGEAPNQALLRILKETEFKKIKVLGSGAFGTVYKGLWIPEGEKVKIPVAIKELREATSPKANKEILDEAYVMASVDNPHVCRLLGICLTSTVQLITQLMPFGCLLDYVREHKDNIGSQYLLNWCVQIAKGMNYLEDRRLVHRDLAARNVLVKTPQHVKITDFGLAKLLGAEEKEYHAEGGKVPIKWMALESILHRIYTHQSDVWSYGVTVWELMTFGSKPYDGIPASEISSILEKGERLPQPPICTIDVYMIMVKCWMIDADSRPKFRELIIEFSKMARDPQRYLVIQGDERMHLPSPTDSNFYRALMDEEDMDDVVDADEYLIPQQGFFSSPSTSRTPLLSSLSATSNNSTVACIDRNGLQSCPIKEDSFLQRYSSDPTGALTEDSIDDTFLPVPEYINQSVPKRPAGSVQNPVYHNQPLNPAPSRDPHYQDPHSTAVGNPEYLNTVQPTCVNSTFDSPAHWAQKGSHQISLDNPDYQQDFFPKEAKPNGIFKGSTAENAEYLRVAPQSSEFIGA

Work on `COc1ccc(-c2nc3sc(-c4ccc(Cl)cc4)cn3n2)cc1` yielded an inhibition of growth at 10 µM (CCRF-CEM) of 30.5%, an inhibition of growth at 10 µM (K562) of 38.5% and an inhibition of growth at 10 µM (MOLT-4) of 17.4%. It also gave an inhibition of growth at 10 µM (A549 [1]) of -30%, an inhibition of growth at 10 µM (EKVX) of 52.5% and an inhibition of growth at 10 µM (HOP-62 [2]) of 60.4%. For the same compound, the inhibition of growth at 10 µM (HOP-92) was 79.5%, the inhibition of growth at 10 µM (NCI-H226) was 49.9% and the inhibition of growth at 10 µM (NCI-H522) was 39%. The inhibition of growth at 10 µM (COLO 205) was 47.5%, the inhibition of growth at 10 µM (HCT-15) was 28% and the inhibition of growth at 10 µM (HT-29 [3]) was 82.7%. The inhibition of growth at 10 µM (SW-620) was 40.4%, the inhibition of growth at 10 µM (SF-539) was 84.6% and the inhibition of growth at 10 µM (LOX IMVI) was 45.8%. It also gave an inhibition of growth at 10 µM (Malme-3M) of 49.2%, an inhibition of growth at 10 µM (MDA-MB-435) of 25% and an inhibition of growth at 10 µM (SK-MEL-5) of 27.4%. For the same compound, the inhibition of growth at 10 µM (A498) was -25.8%, the inhibition of growth at 10 µM (RXF 393) was 41% and the inhibition of growth at 10 µM (TK-10 [4]) was -30.8%. It also gave a GI50 (SR) of 4.53 µM, a TGI (SR) of 26.1 µM and a CC50 (SR; [13]) greater than 50 µM. For the same compound, the GI50 (HOP-62 [5]) was 2.36 µM, the TGI (HOP-62 [5]) was greater than 50 µM and the CC50 (HOP-62 [5]; [13]) was greater than 50 µM. The GI50 (TK-10 [6]) was 2.01 µM, the TGI (TK-10 [6]) was 5.62 µM and the CC50 (TK-10 [6]; [13]) was 34.8 µM. The GI50 (T47D) was 3.54 µM, the TGI (T47D) was greater than 50 µM and the CC50 (T47D; [13]) was greater than 50 µM. It also gave an IC50 (HT-29 [7]) of 2.4 µM, an IC50 (NCI-H460) of 1.6 µM and an IC50 [8] of 1.5 µM. It also gave an Activity (Tubulin (Homo sapiens)) of 1510 a.u, an Activity (A549 [9]) of 4.62% and an Activity (A549 [10]) of 1.34%. It also gave an Activity (A549 [11]) of 58.11% and an Activity (A549 [12]) of 17.34%.
